Assay results published in patent US12043617B2, “4-(N-methyl) aminopiperidine myricetin derivative containing dithiocarbamate, preparation method and application” (Guizhou University, priority 2019, dated 2024).

Test system: SMMC-7721 cells
Test: MTT colorimetry, inhibition of hepatocellular carcinoma SMMC-7721 cell activity
Type: cell-based
Settings: 48 hours
Experimental: Test for Inhibition of Cancer Cell Activity by Compound of Embodiment 19 (Taking Hepatocellular Carcinoma SMMC-7721 Cells as an embodiment):
SMMC-7721 cells are cultured in DMEM high sugar medium containing 10% fetal bovine serum in a saturated humidity incubator at 37° C. and 5% CO2. The culture medium is changed every two days and passaged every 3-4 days. The drug is prepared as 1 mmol/L and 10 mmol/L storage solution using DMSO as solvent, when used, the concentration is diluted into 1 μmol/L and 10 μmol/L with culture medium, using DMSO as negative control group and gemcitabine as positive control group to act on cells in logarithmic growth phase.
Cells in logarithmic growth phase are digested with 0.025% pancreatin, and then digested with DMEM high sugar medium containing 10% fetal bovine serum. After centrifugation, the cells are suspended in DMEM high sugar medium containing 10% fetal bovine serum. Take a 96-well plate and add 200 μL of sterile water seal to each hole around the plate to ensure saturated humidity in the experiment. In the middle six rows, 100 μL of cell suspension are added respectively, and the cell concentration is about 3.5×10^4 cells/mL. The last row is blank control group, and the same volume of complete culture medium is added. In 37° C., 5% CO2 saturated humidity incubator culture for 24 hours, cells completely adhere to the wall, remove the culture medium, add complete culture medium containing different drugs, 200 μL per hole. The blank control group is added with 200 μL of complete culture medium, and the culture is continued. After 24 hours, the drug effect is observed and photographed under an inverted microscope. After 48 hours, the drug effect is also observed and photographed under an inverted microscope. Then the supernatant is removed. 100 μL of 0.5 mg/mL MTT solution is added to each well. After 4 hours of continuous culture, purple crystal formazan is generated. 100 μL of 10% SDS is added to each well. After 12 hours of culture in an incubator at 37° C., the OD value is measured with an enzyme reader at A571 wavelength. Repeat 6 wells for each sample concentration, and calculate the inhibition rate by taking the average value.

SMILES: COc1cc(OC)c2c(=O)c(OCCCN(C)C3CCN(C(=S)SCc4ccc(Cl)cc4Cl)CC3)c(-c3cc(OC)c(OC)c(OC)c3)oc2c1 [Compound A3, 2,4-dichlorobenzyl 4-((3-((5,7-dimethoxy-4-oxo-2-(3,4,5-trimethoxyphenyl)-4H-chromene-3-yl)oxy)propyl) (methyl)amino) piperidine-1-dithiocarboxylic acid]
- Inhibition Rate (%) (1 μmol/L): 18.16 ± 2.14 %
- Inhibition Rate (%) (10 μmol/L): 97.35 ± 1.78 %
